According to ChEMBL document CHEMBL5291721, “A preclinical secondary pharmacology resource illuminates target-adverse drug reaction associations of marketed drugs” (Nat Commun, 2023):

What was measured:
Mu-type opioid receptor = Mu-type opioid receptor (Homo sapiens, UniProt P35372)
[1] = target: T1, Prostaglandin G/H synthase 1 (Homo sapiens, UniProt P23219); type: functional
[2] = target: T1, Prostaglandin G/H synthase 1; type: functional; remark: listed apart in the source
[3] = target: Voltage-gated inwardly rectifying potassium channel KCNH2 (Homo sapiens, UniProt Q12809); type: functional
[4] = target: Sodium-dependent dopamine transporter (Homo sapiens, UniProt Q01959)
Acetylcholinesterase = Acetylcholinesterase (Homo sapiens, UniProt P22303); type: functional
Thromboxane A2 receptor [5] = target: T2, Thromboxane A2 receptor (Homo sapiens, UniProt P21731); type: functional, cell-based
T2 sequence (P21731 whole entry): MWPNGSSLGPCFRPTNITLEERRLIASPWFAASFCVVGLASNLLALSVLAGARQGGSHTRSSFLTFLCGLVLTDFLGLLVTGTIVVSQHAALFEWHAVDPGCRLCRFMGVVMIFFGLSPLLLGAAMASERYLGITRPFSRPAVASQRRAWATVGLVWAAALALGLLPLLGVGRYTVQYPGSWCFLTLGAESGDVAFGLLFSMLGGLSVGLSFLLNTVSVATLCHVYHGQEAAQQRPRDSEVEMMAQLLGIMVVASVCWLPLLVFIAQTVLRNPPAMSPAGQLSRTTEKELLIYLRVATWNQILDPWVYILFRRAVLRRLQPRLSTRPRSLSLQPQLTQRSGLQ

[6] = target: T3, 5-hydroxytryptamine receptor 1A (Homo sapiens, UniProt P08908)
T3 sequence (P08908 whole entry): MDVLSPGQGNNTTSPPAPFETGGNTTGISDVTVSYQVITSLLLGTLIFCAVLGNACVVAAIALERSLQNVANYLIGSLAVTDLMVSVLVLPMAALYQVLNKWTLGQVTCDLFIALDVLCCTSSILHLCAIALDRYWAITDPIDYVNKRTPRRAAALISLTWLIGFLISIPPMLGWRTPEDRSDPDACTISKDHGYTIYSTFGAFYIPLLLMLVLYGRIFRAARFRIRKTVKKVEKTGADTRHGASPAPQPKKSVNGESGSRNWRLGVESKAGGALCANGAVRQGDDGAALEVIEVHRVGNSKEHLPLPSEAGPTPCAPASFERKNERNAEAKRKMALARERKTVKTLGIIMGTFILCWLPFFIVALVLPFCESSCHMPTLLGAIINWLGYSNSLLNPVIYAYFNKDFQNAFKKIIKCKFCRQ

Histamine H3 receptor = Histamine H3 receptor (Homo sapiens, UniProt Q9Y5N1)
[7] = target: T4, Amine oxidase [flavin-containing] A (Homo sapiens, UniProt P21397); type: functional
T4 sequence (P21397 whole entry): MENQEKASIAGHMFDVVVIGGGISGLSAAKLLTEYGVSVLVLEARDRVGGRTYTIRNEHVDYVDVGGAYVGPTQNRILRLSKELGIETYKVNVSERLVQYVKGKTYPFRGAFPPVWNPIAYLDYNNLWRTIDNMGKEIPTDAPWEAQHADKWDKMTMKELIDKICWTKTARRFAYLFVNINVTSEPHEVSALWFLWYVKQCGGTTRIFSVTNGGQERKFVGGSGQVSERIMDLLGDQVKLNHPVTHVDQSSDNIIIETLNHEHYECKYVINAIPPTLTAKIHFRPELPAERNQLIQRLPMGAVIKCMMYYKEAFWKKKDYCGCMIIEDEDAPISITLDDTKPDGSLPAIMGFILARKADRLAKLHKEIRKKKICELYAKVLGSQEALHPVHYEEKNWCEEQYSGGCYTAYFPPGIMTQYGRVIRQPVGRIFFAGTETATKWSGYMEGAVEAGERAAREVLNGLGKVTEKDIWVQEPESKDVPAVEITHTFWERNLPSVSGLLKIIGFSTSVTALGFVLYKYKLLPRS

[8] = target: T5, Muscarinic acetylcholine receptor M2 (Homo sapiens, UniProt P08172)
T5 sequence (P08172 whole entry): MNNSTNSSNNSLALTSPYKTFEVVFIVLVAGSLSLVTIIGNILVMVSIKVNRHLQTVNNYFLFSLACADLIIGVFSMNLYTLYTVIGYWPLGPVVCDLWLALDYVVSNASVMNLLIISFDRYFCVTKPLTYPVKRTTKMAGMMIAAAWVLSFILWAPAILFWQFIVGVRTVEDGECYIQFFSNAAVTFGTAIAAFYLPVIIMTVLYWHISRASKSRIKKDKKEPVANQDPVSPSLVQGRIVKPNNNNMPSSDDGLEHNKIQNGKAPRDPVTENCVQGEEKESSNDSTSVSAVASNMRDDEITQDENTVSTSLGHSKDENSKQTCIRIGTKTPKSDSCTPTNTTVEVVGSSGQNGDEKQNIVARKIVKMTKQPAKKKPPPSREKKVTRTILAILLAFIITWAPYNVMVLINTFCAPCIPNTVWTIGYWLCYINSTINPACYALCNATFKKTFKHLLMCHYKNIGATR

D(3) dopamine receptor = D(3) dopamine receptor (Homo sapiens, UniProt P35462)
D(1A) dopamine receptor = D(1A) dopamine receptor (Homo sapiens, UniProt P21728)
Prothrombin = Prothrombin (Homo sapiens, UniProt P00734); type: functional
[9] = target: Sodium-dependent noradrenaline transporter (Homo sapiens, UniProt P23975)
Thromboxane A2 receptor [10] = target: T2, Thromboxane A2 receptor; type: functional, cell-based; remark: listed apart in the source
[11] = target: 5-hydroxytryptamine receptor 2B (Homo sapiens, UniProt P41595); type: functional, cell-based
[12] = target: cGMP-inhibited 3',5'-cyclic phosphodiesterase 3A (Homo sapiens, UniProt Q14432); type: functional
Also: assay procedure not described here.

Sequence of D(1A) dopamine receptor (P21728 whole entry): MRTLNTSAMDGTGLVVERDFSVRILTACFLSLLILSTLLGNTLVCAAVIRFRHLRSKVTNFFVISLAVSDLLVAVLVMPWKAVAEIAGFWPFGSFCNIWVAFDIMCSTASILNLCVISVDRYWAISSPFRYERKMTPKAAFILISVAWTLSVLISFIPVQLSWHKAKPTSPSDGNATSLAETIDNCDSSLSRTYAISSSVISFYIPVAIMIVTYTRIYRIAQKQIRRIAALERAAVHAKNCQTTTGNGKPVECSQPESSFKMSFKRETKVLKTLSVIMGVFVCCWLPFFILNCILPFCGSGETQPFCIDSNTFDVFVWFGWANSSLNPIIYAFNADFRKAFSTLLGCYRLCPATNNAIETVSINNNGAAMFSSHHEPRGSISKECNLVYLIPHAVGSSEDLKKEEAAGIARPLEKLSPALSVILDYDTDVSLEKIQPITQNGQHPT
Sequence of cGMP-inhibited 3',5'-cyclic phosphodiesterase 3A (Q14432 whole entry): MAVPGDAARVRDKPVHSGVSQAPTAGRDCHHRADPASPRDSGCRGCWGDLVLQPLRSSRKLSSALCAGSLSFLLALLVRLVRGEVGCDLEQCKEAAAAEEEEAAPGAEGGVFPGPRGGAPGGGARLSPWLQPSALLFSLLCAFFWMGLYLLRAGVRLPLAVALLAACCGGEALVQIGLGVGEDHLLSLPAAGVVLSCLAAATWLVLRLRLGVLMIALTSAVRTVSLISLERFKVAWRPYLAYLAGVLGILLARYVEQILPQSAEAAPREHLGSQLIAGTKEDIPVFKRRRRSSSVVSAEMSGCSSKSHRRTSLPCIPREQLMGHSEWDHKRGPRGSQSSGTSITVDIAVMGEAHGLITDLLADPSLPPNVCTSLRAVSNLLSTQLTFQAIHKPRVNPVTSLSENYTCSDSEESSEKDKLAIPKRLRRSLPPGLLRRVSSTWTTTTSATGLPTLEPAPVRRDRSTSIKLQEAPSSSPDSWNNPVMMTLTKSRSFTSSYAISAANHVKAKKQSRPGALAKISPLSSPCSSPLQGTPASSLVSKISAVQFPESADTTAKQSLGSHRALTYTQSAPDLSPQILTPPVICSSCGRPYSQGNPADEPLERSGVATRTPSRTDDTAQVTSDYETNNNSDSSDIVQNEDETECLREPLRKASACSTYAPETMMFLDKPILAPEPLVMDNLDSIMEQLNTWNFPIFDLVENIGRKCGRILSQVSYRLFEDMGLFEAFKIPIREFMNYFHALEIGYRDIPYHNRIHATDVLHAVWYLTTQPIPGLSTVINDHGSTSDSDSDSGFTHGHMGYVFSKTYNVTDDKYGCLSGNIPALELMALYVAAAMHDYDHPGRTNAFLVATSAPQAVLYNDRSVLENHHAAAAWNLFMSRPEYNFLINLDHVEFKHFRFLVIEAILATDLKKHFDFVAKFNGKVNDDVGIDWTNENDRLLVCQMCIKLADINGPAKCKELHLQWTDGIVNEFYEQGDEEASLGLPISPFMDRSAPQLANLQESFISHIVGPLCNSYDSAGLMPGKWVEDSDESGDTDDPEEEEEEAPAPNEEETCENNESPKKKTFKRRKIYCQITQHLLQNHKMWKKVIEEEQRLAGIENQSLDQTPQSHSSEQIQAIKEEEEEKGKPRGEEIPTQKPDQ
Sequence of Histamine H3 receptor (Q9Y5N1 whole entry): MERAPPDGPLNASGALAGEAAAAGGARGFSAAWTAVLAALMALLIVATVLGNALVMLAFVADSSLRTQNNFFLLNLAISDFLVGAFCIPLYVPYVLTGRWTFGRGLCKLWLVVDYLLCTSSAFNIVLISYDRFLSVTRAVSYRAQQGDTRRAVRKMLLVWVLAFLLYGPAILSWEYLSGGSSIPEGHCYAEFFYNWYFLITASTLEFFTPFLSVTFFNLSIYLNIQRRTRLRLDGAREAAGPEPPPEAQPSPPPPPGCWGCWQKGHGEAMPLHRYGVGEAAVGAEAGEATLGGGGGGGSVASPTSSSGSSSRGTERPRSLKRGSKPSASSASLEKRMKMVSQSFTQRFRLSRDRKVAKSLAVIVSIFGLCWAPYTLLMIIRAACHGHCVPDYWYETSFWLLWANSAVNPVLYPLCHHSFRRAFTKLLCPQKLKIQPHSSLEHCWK
Sequence of Sodium-dependent noradrenaline transporter (P23975 whole entry): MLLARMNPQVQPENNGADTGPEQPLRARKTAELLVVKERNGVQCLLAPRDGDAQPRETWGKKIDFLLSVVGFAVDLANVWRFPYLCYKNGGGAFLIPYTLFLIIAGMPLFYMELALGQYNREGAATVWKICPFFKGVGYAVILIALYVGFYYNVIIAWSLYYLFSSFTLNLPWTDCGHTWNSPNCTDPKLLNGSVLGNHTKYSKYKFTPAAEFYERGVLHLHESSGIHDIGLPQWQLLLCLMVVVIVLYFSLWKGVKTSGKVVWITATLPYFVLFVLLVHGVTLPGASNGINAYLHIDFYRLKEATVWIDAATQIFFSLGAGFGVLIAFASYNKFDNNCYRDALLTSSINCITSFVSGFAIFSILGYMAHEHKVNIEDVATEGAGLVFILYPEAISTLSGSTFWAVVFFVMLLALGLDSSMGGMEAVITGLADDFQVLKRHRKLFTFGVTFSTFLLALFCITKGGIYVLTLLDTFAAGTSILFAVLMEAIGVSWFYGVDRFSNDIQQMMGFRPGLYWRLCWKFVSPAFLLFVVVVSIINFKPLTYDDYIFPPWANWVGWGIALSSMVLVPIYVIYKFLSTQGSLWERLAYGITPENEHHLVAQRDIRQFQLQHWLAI
Sequence of Acetylcholinesterase (P22303 whole entry): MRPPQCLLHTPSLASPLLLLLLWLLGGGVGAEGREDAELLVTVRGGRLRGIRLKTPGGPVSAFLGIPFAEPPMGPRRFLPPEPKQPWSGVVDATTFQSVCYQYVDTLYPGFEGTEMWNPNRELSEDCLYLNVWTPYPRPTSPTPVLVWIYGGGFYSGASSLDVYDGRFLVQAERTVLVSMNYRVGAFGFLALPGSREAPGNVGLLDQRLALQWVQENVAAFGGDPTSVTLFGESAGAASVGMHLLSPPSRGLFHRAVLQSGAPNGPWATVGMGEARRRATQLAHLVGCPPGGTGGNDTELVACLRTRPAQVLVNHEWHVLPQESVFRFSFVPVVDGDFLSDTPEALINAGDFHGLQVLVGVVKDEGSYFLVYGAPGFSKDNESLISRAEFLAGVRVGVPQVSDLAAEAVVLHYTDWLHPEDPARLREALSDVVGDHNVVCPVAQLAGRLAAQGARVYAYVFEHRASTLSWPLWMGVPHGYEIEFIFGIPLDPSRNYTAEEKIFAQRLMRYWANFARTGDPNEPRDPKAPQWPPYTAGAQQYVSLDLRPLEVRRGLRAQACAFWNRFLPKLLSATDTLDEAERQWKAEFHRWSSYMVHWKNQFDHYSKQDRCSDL
Sequence of Mu-type opioid receptor (P35372 whole entry): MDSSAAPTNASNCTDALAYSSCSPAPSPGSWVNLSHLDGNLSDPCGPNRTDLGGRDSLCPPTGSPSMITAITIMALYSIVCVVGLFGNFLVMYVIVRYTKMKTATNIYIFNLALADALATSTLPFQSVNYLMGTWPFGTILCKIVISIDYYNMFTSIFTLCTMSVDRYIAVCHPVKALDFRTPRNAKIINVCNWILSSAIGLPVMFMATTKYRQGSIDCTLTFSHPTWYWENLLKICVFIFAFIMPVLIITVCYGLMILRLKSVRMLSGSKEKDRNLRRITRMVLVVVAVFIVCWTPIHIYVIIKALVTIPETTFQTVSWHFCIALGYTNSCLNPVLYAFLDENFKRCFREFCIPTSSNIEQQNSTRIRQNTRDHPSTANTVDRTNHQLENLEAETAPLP
Sequence of Sodium-dependent dopamine transporter (Q01959 whole entry): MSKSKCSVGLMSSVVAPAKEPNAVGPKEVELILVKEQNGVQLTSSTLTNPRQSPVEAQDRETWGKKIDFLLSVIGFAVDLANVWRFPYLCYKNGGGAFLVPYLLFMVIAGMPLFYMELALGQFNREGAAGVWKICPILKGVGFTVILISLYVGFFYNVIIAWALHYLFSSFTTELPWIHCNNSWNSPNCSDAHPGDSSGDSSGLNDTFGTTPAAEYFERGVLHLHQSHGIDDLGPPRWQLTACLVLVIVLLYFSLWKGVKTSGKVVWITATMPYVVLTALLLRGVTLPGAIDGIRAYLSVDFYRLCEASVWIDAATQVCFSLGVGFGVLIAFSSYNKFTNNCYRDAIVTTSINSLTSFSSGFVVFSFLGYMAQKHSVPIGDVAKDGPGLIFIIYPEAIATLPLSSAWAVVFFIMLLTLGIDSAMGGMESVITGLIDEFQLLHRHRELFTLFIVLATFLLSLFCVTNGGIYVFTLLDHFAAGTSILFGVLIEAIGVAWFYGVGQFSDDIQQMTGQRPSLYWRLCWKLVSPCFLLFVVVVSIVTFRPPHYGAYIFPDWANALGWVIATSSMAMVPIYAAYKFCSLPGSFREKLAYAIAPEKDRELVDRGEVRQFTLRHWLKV
T1 sequence (P23219 whole entry): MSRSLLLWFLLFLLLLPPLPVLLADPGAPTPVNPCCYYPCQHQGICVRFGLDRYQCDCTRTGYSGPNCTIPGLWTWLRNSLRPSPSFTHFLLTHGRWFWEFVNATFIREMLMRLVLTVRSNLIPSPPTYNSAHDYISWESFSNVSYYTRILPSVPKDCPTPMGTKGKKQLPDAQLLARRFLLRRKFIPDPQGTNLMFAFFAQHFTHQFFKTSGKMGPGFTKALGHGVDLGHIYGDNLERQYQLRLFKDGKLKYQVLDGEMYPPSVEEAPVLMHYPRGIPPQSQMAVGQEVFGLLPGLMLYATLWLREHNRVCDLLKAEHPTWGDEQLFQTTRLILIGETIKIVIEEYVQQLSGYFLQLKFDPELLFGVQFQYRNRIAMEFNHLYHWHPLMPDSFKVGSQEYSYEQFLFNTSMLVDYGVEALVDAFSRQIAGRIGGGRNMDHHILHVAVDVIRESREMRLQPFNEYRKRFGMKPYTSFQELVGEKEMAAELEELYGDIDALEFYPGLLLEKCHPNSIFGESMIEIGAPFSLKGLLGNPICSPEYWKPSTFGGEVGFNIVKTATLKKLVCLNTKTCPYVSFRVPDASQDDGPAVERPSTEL

| SMILES | AC50 (Mu-type opioid receptor) [µM] | AC50 [1] [µM] | AC50 [2] [µM] | AC50 [3] [µM] | AC50 [4] [µM] | AC50 (Acetylcholinesterase) [µM] | AC50 (Thromboxane A2 receptor [5]) [µM] | AC50 [6] [µM] | AC50 (Histamine H3 receptor) [µM] | AC50 [7] [µM] | AC50 [8] [µM] | AC50 (D(3) dopamine receptor) [µM] | AC50 (D(1A) dopamine receptor) [µM] | AC50 (Prothrombin) [µM] | AC50 [9] [µM] | AC50 (Thromboxane A2 receptor [10]) [µM] | AC50 [11] [µM] | AC50 [12] [µM] |
| --- | --- | --- | --- | --- | --- | --- | --- | --- | --- | --- | --- | --- | --- | --- | --- | --- | --- | --- |
| C/C=C/C/C=C/CCC(=O)[C@H]1O[C@H]1C(N)=O [CERULENIN] | > 30 | > 30 | 15.5 | > 30 | > 30 | > 30 | > 30 | > 30 | > 30 | > 30 | > 30 | > 30 | > 30 | > 30 | > 30 | > 30 | > 30 | > 30 |
| CCn1cc(C(=O)O)c(=O)c2cc3c(cc21)OCO3 [OXOLINIC ACID] | > 30 | > 30 | > 30 | > 30 | > 30 | > 30 | > 30 | > 30 | > 30 | > 30 | > 30 | > 30 | > 30 | > 30 | > 30 | > 30 | > 30 | > 30 |
| CC(CN1CC(=O)NC(=O)C1)N1CC(=O)NC(=O)C1 (stereo not given) [RAZOXANE] | > 30 | 20.4 | > 3 | > 30 | > 30 | > 10 | > 30 | > 30 | > 30 | > 30 | > 30 | > 30 | > 30 | > 30 | > 30 | > 30 | > 30 | > 30 |
| CC(C)OC(=O)CCC/C=C\C[C@@H]1[C@@H](/C=C/C(F)(F)COc2ccccc2)[C@H](O)C[C@@H]1O [TAFLUPROST] | > 30 | > 30 | > 30 | > 30 | > 30 | > 30 | 29.6 | > 30 | > 30 | > 30 | > 30 | > 30 | > 30 | > 30 | > 30 | > 30 | > 30 | > 30 |
| Nc1ccc(C(=O)Oc2ccccc2)c(O)c1 [PHENYL AMINOSALICYLATE] | > 30 | > 30 | > 30 | > 30 | 0.235 | > 30 | 17.2 | > 30 | > 30 | > 30 | > 30 | > 30 | > 30 | > 30 | 0.777 | > 30 | > 30 | > 30 |
